# Columns and labels:
# [1] = Example 7: fetal alcohol syndrome related defects in offspring of alcohol treated rats; assay type: in vivo; details: given before and during the alcohol treatment; versus inositol free alcohol treated group
# Protocol: Female rats are administered alcohol for 2 weeks and then mated. The alcohol administration continues through out pregnancy and the rate of fetal alcohol syndrome related defects in the offspring are noted. A second set of rats from the same strain are mated without having the alcohol treatment as a control and the rate of defects of the same type as noted in the first arm are noted. […] A third arm of the study includes rats that are administered D-chiroinositol or a phosphorylate thereof before and during the alcohol treatment and are otherwise treated in the same manner as in the alcohol treatment above.
# [2] = Example 2: females at risk of fetal malformations, treatment from before conception through first trimester; assay type: in vivo; details: once daily from before conception through the end of the first trimester; relative to the untreated controls
# Protocol: Females determined to be at risk of fetal malformations and who are seeking a further pregnancy are split into no treatment, folate treatment, D-chiroinositol treatment, and Folate+D-chiroinositol treatment arms. The respective regimens are administered once daily from before conception through the end of the first trimester. Relative to the untreated controls, the frequency of fetal malformations is reduced in each of the non-control arms.
# [3] = test system: phosphatidyl inositol (PI3K) signaling pathway; assay: Example 6: cultured curly tail mice embryos, PNP closure; details: embryos cultured from E9.5 to E10.5, in vitro
# Protocol: To determine whether the downstream targets of the phosphatidyl inositol (PI3K) signaling pathway could be effected by an inhibitor, we can use […] to inhibit the effect of inositol on neural tube closure. The curly tail mice embryos are cultured from E9.5 to E10.5, and the length of unclosed neural folds at the pnp are measured to indicate predisposition to spina bifida. Embryos which are exposed to the kinase inhibitor alone have enlarged PNP's, reflecting the in vivo development of spinal NTD's by 50%-60% of curly tail embryos.
# [4] = test system: curly tail model; details: cited from earlier work
# [5] = Example 4: men on androgen ablative therapy, male breast cancer; assay type: in vivo; details: prior to and throughout androgen ablative therapy; compared to controls
# Text: Men preparing to initiate androgen ablative therapy are initiated on a course of D-chiroinositol prior to and throughout the treatment with the androgen ablative therapeutic.
# [6] = molecular target: T1, PDK1 (Homo sapiens, UniProt O15530); details: phosphorylation of the PDK tide peptide substrate by PDK1; cited from earlier work
# T1 sequence (O15530 1-556): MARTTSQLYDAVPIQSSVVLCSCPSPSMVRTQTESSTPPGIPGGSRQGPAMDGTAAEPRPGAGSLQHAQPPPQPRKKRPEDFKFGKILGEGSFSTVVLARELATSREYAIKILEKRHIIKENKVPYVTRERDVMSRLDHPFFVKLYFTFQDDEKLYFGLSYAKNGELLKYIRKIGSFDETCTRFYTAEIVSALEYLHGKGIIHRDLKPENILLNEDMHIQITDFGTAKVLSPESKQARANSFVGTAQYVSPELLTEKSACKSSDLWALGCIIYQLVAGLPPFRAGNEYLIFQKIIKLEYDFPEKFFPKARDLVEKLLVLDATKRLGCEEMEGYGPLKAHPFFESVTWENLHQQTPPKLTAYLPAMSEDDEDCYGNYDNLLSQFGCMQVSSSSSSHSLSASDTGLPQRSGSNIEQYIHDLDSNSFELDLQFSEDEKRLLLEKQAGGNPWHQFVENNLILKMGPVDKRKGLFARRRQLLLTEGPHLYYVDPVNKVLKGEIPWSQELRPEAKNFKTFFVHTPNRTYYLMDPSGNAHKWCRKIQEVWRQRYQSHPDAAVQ
# [7] = test system: PKB; details: increasing extracellular Ins(1,3,4,5,6)P5; cited from earlier work
# [8] = molecular target: T1, PDK1; details: cited from earlier work
# [9] = test system: hedgehog signaling; details: cultured neonatal mouse ovaries; cited from earlier work
# [10] = test system: Shh signaling; details: explants from mice at 13.5 days of gestation, six to eight days in culture; cited from earlier work
# [11] = test system: amyloid β deposits; details: in vivo; cited from earlier work
# [12] = China 1993 to 1995; 3.1 per 10,000 births for those not taking folic acid; cited from earlier work
# [13] = taken before conception and during early pregnancy; cited from earlier work
# [14] = test system: Shh signaling; assay: Example 5: curly tail mice embryos, spinal and genitourinary defects; assay type: in vivo; details: D-chiroinositol vs. myoinositol
# Protocol: These embryos are exposed to the present invention compound D-chiroinositol vs. myoinositol and internal examination is conducted.
# [15] = test system: MDA-MB 231 cells; details: cited from earlier work
# [16] = test system: Colo357, BxPc3, or PancTuI tumors; design: reduction of metastasis / reduction of the number of liver metastases / reduction of volumes of recurrent tumors: concentration or dose not given beside the values; details: cited from earlier work; for reduction of the number of liver metastases / reduction of volumes of recurrent tumors: mouse, in vivo
# [17] = test system: PDAC cells; details: in vitro; cited from earlier work
# [18] = severe combined immunodeficient mice, orthotopic tumors
molecule,measurement,setting,value
"O[C@H]1[C@H](O)[C@H](O)[C@@H](O)[C@@H](O)[C@H]1O [D-chiroinositol, D-chiro-inositol]",rate of fetal alcohol syndrome defects,[1],substantially less
same,frequency of fetal malformations,[2],reduced
same,PNP closure,[3],normalizes PNP closure
same,frequency of spina bifida,"[4]; curly tail model, compound alone",reduced frequency of spina bifida in this model to a greater extent than myo-inositol alone
same,frequency of male breast cancer,[5],substantially reduced
"O=P(O)(O)OC1[C@@H](OP(=O)(O)O)[C@H](OP(=O)(O)O)C(O)[C@H](OP(=O)(O)O)[C@H]1OP(=O)(O)O (stereo partly shown) [Ins(1,3,4,5,6)P5]",direct inhibition of PDK1 catalytic activity,[6],did not directly inhibit
same,PKB activation in cells,[7],lowered PKB activation
"O=P(O)(O)O[C@@H]1[C@H](O)[C@H](O)[C@@H](OP(=O)(O)O)[C@H](OP(=O)(O)O)[C@H]1O [Ins(1,4,5)P3]",binding to PDK1,[8],could not be detected
O=P(O)(O)O[C@H]1[C@H](OP(=O)(O)O)[C@@H](OP(=O)(O)O)[C@H](OP(=O)(O)O)[C@@H](OP(=O)(O)O)[C@H]1OP(=O)(O)O [InsP6],direct inhibition of PDK1 catalytic activity,[6],did not directly inhibit
CC1=C2C[C@H]3[C@@H](CC=C4C[C@@H](O)CC[C@@]43C)[C@@H]2CC[C@]12O[C@@H]1C[C@H](C)CN[C@H]1[C@H]2C [cyclopamine],induced expression of hedgehog target genes Ptch1 and Gli1,[9],inhibits this induced expression of target genes
same,morphogenesis of vibrissa follicles,[10],striking inhibition of morphogenesis
OC1C(O)C(O)C(O)C(O)C1O (stereo not drawn) [epi-inositol],"efficacy in Alzheimer's disease (amyloid β deposits, cognitive ability)",[11],only worked at all when given before disease onset
Nc1nc(O)c2nc(CNc3ccc(C(=O)N[C@@H](CCC(=O)O)C(=O)O)cc3)cnc2n1 [folic acid],rate of imperforate anus,[12],"1.6 per 10,000 births"
same,frequency of fetal malformations,[2],reduced
same,reduction of the risk of the fetus developing a neural tube defect,[13],about 70%
O[C@H]1[C@H](O)[C@@H](O)[C@H](O)[C@@H](O)[C@H]1O [myo-inositol],incidence of neural tube defects,[4]; mouse models that are folate resistant,reduced the incidence of neural tube defects
same,severity of spinal and genitourinary defects in embryos,[14],severe compared to those embryos treated with D-chiroinositol
same,"efficacy in Alzheimer's disease (amyloid β deposits, cognitive ability)",[11],not to be effective
O=P(O)(O)O[C@H]1[C@H](OP(=O)(O)O)[C@@H](OP(=O)(O)O)[C@H](OP(=O)(O)O)[C@@H](OP(=O)(O)O)[C@H]1OP(=O)(O)O [myoinositol hexaphosphate],secretion of MMP-9,[15],significantly inhibits
O[C@H]1[C@H](O)[C@@H](O)[C@H](O)[C@@H](O)[C@@H]1O [scyllo-inositol],"efficacy in Alzheimer's disease (amyloid β deposits, cognitive ability)",[11],prevent the accumulation of amyloid β deposits and improved cognitive ability
etanercept,reduction of the number of liver metastases,[16],42%
same,reduction of volumes of recurrent tumors,[16],51%
same,effect on proliferation and invasiveness of PDAC cells,[17],only marginally affected
infliximab: human-specific anti-TNF antibody,reduction of the number of liver metastases,[16],69%
same,reduction of volumes of recurrent tumors,[16],73%
same,reduction of metastasis,[16]; [18],~50%
same,reduction of tumor growth,[16]; [18],about 30%
same,effect on proliferation and invasiveness of PDAC cells,[17],only marginally affected

# Reference: patent US12329766B2, “Compounds, methods, and treatments for abnormal signaling pathways for prenatal and postnatal development” (priority 2006, dated 2025)
